According to BindingDB's records for doi:10.1021/jm800355c (Saarland University, 2008):

Molecular target: T1, Cytochrome P450 11B1, mitochondrial (Homo sapiens, UniProt P15538)
T1 sequence (P15538 whole entry): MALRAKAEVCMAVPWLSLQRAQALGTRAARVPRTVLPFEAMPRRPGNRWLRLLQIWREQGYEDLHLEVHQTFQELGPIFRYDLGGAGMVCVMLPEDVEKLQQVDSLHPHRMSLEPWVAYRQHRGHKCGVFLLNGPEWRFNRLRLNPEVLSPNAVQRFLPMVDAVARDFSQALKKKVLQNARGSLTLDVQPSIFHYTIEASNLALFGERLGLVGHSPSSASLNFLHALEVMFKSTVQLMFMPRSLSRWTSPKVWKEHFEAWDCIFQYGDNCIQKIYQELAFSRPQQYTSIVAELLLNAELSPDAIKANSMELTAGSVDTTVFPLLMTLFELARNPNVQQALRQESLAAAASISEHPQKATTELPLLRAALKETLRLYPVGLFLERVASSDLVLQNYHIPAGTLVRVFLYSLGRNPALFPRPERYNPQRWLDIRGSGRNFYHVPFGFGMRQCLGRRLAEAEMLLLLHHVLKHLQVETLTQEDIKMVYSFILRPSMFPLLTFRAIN
Experiment: CYP11B1 Inhibition Assay
Experimental: The enzyme activity was assayed by monitoring the conversion of deoxycorticosterone to corticosterone in the presence of inhibitor compounds. The product formation was monitored by HPTLC using a phosphoimager system.

C[C@]12CC[C@H](O)CC1=CC[C@@H]1[C@@H]2CC[C@]2(C)C(c3cccnc3)=CC[C@@H]12 [ABT]
IC50: 1.61 µM
